US6620936B2, “9-aminoacridine derivatives and process for the preparation thereof” (Samjin Pharmaceutical Co., Ltd., priority 1998, dated 2003)
Converted amounts (≈) assume the structure as drawn.

What was measured:
[1] = system: A549 (human non-small lung cell); assay: In vitro antitumor effect against human tumor cell lines, SRB assay; type: cell-based; conditions: 48 hours, A549 cells
Description: (§1) In vitro antitumor effect against human tumor cell lines.
A. Tumor cell lines : A549 (human non-small lung cell)
(§2) a. Human solid tumor cell lines, A549(non-small lung cell), SKMEL-2(melanoma), HCT-15(colon), SKOV-3(ovarian) and XF-498(CNS) were cultured in 5% CO2, incubators using the RPMI 1640 media containing 10% FBS at 37° C., while with transfer-culturing successively once or twice per week. Cell cultures were dissolved in a solution of 0.25% trysin and 3 mmol CDTA PBS(−) to separate the cells sticked on the culture media.
(§3) b. 5×10^3˜2×10^4 cells were added into each well of 96-well plate and cultured in 5% CO2, incubator at 37° C. for 24 hours.
(§4) c. Each sample drug was dissolved in a little DMSO and diluted with the used medium to a prescribed concentration for experiment, while the final concentration of DMSO was adjusted below 0.5%.
(§5) d. Medium of each well cultured for 24 hours as above b. was removed by aspiration. Each 200 μl of drug samples prepared in c. was added into each well and tine wells were cultured for 48 hours. Tz (time zero) plates were collected at the point of time drugs were added.
(§6) e. According to the SRB assay method, cell fixing with TCA, staining with 0.4% SRB solution, washing with 1% acetic acid and elution of dye with 10 mmol Tris solution were carried out on Tz plates and culture-ended plates, and then, OD values were measured at 520 nm.
(§7) a. Time zero (Tz) value was determined with measuring the SRB protein value at the point of time drugs were added.
(§8) b. Control value (C) was determined with the OD value of an well untreated with drug.
(§9) c. Drug-treated test value (T) was determined with the OD value of drug-treated well.
(§10) d. Effects of drugs were estimated with growth stimulation, net growth inhibition and net killing calculated from Tz, C and T values.
(§11) e. If T≧Tz, cellular response function was calculated by 100×(T−Tz)/(C−Tz), and, if T≦Tz, by 100×(T−Tz)/Tz.

SKOV-3 (human ovarian) = assay: as above; type: cell-based; conditions: 48 hours, SK-OV-3 cells
Description: as §1, §2, §3, §4, §5, §6, §7, §8, §9, §10, §11

SKMEL-2 (human melanoma) = assay: as above; type: cell-based; conditions: 48 hours, SK-MEL-2 cells
Description: as §1, §2, §3, §4, §5, §6, §7, §8, §9, §10, §11

XF-498 (human CNS) = assay: as above; type: cell-based; conditions: 48 hours, XF-498 cells
Description: as §1, §2, §3, §4, §5, §6, §7, §8, §9, §10, §11

HCT-15 (human colon) = assay: as above; type: cell-based; conditions: 48 hours, HCT 15 cells
Description: as §1, §2, §3, §4, §5, §6, §7, §8, §9, §10, §11

[2] = system: P388 (mouse lymphoid neoplasma cell); assay: In vitro antitumor effects against animal leukemia cells, dye exclusion assay; type: cell-based; conditions: 48 hours, trypan blue dye exclusion, read-out: P388, concentration showing 50% cell growth inhibition (IC50)
Description: In vitro antitumor effects against animal leukemia cells.
Tumor cell lines: P388 (mouse lymphoid neoplasma cell)
B. Method: Dye Exclusion Assay.
1) The concentration of P388 cells being cultured in RPMI 1640 media containing 10% FBS was adjusted to 1×10^6 cells/ml.
2) Each sample drug of a concentration diluted in the ratio of log dose was added into cell culture media and cultured at 37° C. for 48 hours in […] incubator, and then viable cell number was measured by dye exclusion test using trypan blue.

Topoisomerase II = assay: Inhibition effects against the Topoisomerase II activities (DNA relaxation assay, DNA cleavage assay); type: biochemical; conditions: supercoiled pBR322 DNA substrate, 30 minutes at 37° C.
Description: Inhibition effects against the Topoisomerase II activities
The present compounds were tested for inhibition of Topoisomerase II activity by means of the relaxation assay using supercoiled pBR322 DNA as the substrate. Topo II and a sample inhibitor were added to a reaction system (50 mmol Tris-HCl, pH 7.5, 50 mmol KCl, 20 mmol MgCl2, 0.5 mmol EDTA, 2 mmol ATP, 60 μg/ml BSA) containing supercoiled pBR322 DNA and reacted for 30 minutes at 37° C. Then, a quarter by volume of Stop buffer (5% SDS, 50 mmol EDTA, 30% glycerol, 0.1 mg/ml xylene cyanol, 0.1 mg/ml BPB) was added to the reaction system to stop the reaction. The resulting product went through electrophoresis on 0.7% agarose gel and was stained by ethidium bromide solution. Mobility of DNA was measured under ultraviolet rays.
Topo II and a sample inhibitor were added to cleavage buffer (30 mmol Tris-HCl, pH 7.5, 60 mmol KCl, 10 mmol MgCl2, 15 mmol β-mercaptoethanol, 30 μg /ml BSA) containing supercoiled pBR322 DNA and allowed to react for 30 minutes at 37° C. Then, […] by 1% was added to the reaction system to stop the reaction. Then, proteinase K was added thereto up to the concentration of 50 μg/ml and allowed to react for 30 minutes at 56° C. The reaction product was treated with phenol/chloroform to purify DNA, and the obtained DNA was loaded on agarose gel electrophoresis, transferred to nitrocellulose membrane and hybridized with probe DNA labelled with radioisotope. Then, the nitrocellulose membrane was covered with an X-ray film and exposed to be sensitized and developed, whereby the degree of cleavage of DNA was measured.

[3] = Acute toxicity test (LD50), Litchfield-Wilcoxon method; conditions: mouse, in vivo, ip; male ICR mice, observed 14 days
Description: Acute Toxicity Test (LD50):
a) Method: Litchfield-Wilcoxon Method.
6-week-old ICR mice(male 30±2.0 g) were fed freely with solid feed and water at room temperature, 23±1° C. and at humidity 60±5%. Sample drugs were injected into the abdominal cavities of mice. Each group comprised 6 mice. Observed during 14 days, external appearances and life or death thereof were recorded, and also, visible lesions were observed from dead mice by dissection. LD50 value was calculated by Litchfield-wilcoxon method.

IC50 (μg/ml), inhibition of Topoisomerase II activity (Topoisomerase II) [µg/mL] | Compound | ED50 A 549 [1] [µg/mL] | ED50 SK-OV-3 (SKOV-3 (human ovarian)) [µg/mL] | ED50 SK-MEL-2 (SKMEL-2 (human melanoma)) [µg/mL] | ED50 XF-498 (XF-498 (human CNS)) [µg/mL] | ED50 HCT 15 (HCT-15 (human colon)) [µg/mL] | IC50 [2] [µg/mL] | LD50 at 14 days [3] [mg/kg]
5 | CCCC=Nc1cc(CO)cc(Nc2c3ccccc3nc3ccccc23)c1 [Example 37, 3-(acridin-9-yl)amino-5-(butylideneamino)phenylmethanol] | 0.90 (≈ 2.44 µM) | 0.93 (≈ 2.52 µM) | 0.89 (≈ 2.41 µM) | 0.36 (≈ 0.974 µM) | 0.35 (≈ 0.947 µM) | – | –
5 | COc1cc(NC(=S)OCc2cc(N)cc(Nc3c4ccccc4nc4ccccc34)c2)cc(OC)c1OC [Example 19, [3-(acridin-9-yl)amino-5-amino]benzyl N-(3,4,5-trimethoxyphenyl)thiocarbamate] | – | – | – | – | – | – | –
3 | N[C@@H](Cc1ccccc1)C(=O)Nc1cc(CO)cc(Nc2c3ccccc3nc3ccccc23)c1 [Example 46, N-[3-(acridin-9-yl)amino-5-(hydroxymethyl)phenyl](2S)-2-amino-3-phenylpropaneamide] | – | – | – | – | – | – | –
5 | CC=Nc1cc(CO)cc(Nc2c3ccccc3nc3ccccc23)c1 [Example 35, 3-(acridin-9-yl)amino-5-(ethylideneamino)phenylmethanol] | – | – | – | – | – | – | –
3 | COc1cccc(NC(=O)OCc2cc(N)cc(Nc3c4ccccc4nc4ccccc34)c2)c1 [Example 2, [3-(acridin-9-yl)amino-5-amino]benzyl N-(3-methoxyphenyl)carbamate] | – | 0.68 (≈ 1.46 µM) | – | 0.71 (≈ 1.53 µM) | 0.97 (≈ 2.09 µM) | – | –
3 | CCC=Nc1cc(CO)cc(Nc2c3ccccc3nc3ccccc23)c1 [Example 36, 3-(acridin-9-yl)amino-5-(propylideneamino)phenylmethanol] | – | – | – | – | – | – | –
3 | COc1cc(NC(=O)OCc2cc(N)cc(Nc3c4ccccc4nc4ccccc34)c2)cc(OC)c1 [Example 3, [3-(acridin-9-yl)amino-5-amino]benzyl N-(3,5-dimethoxyphenyl)carbamate] | – | – | – | – | – | – | –
0.5 | C[C@H](N)C(=O)Nc1cc(CO)cc(Nc2c3ccccc3nc3ccccc23)c1 [Example 45, N-[3-(acridin-9-yl)amino-5-(hydroxymethyl)phenyl](2S)-2-aminopropaneamide] | 0.01 (≈ 0.0259 µM) | 0.21 (≈ 0.543 µM) | 0.25 (≈ 0.647 µM) | 0.88 (≈ 2.28 µM) | 0.86 (≈ 2.23 µM) | – | –
3 | COc1cc(NC(=O)OCc2cccc(Nc3c4ccccc4nc4ccccc34)c2)cc(OC)c1 [Example 21, 3-(acridin-9-yl)aminobenzyl N-(3,5-dimethoxyphenyl) carbamate] | – | – | – | – | – | – | –
3 | COc1cc(NC(=S)OCc2cc(N)cc(Nc3c4ccccc4nc4ccccc34)c2)cc(OC)c1 [Example 18, [3-(acridin-9-yl)amino-5-amino]benzyl N-(3,5-dimethoxyphenyl)thiocarbamate] | – | – | – | – | – | – | –
5 | COc1cc(NC(=O)OCc2cccc(Nc3c4ccccc4nc4ccccc34)c2)cc(OC)c1OC [Example 22, 3-(acridin-9-yl)aminobenzyl N-(3,4,5-trimethoxyphenyl) carbamate] | – | – | – | – | – | – | –
5 | COc1cc(NC(=O)OCc2cc(N)cc(Nc3c4ccccc4nc4ccccc34)c2)cc(OC)c1OC [Example 4, [3-(acridin-9-yl)amino-5-amino]benzyl N-(3,4,5-trimethoxyphenyl) carbamate] | 0.19 (≈ 0.362 µM) | 0.19 (≈ 0.362 µM) | 0.20 (≈ 0.381 µM) | 0.23 (≈ 0.438 µM) | 0.24 (≈ 0.458 µM) | – | –
1 | Nc1cc(COC(=O)Nc2cccc(Cl)c2)cc(Nc2c3ccccc3nc3ccccc23)c1 [Example 14, [3-(acridin-9-yl)amino-5-amino]benzyl N-(3-chlorophenyl) carbamate] | – | – | – | – | – | – | –
3 | COc1cccc(NC(=O)OCc2cccc(Nc3c4ccccc4nc4ccccc34)c2)c1 [Example 20, 3-(acridin-9-yl)aminobenzyl N-(3-methoxyphenyl) carbamate] | – | – | – | – | – | – | –
– | N.N.[Cl][Pt][Cl] [Cisplatin, reference compound] | 0.81 | 0.71 | 0.71 | 0.77 | 3.03 | – | –

Compound | IC50 (μg/ml), inhibition of Topoisomerase II activity (Topoisomerase II) [µg/mL] | ED50 A 549 [1] [µg/mL] | ED50 SK-OV-3 (SKOV-3 (human ovarian)) [µg/mL] | ED50 SK-MEL-2 (SKMEL-2 (human melanoma)) [µg/mL] | ED50 XF-498 (XF-498 (human CNS)) [µg/mL] | ED50 HCT 15 (HCT-15 (human colon)) [µg/mL] | IC50 [2] [µg/mL] | LD50 at 14 days [3] [mg/kg]
Nc1cc(COC(=O)Nc2ccccc2)cc(Nc2c3ccccc3nc3ccccc23)c1 [Example 1, [3-(acridin-9-yl)amino-5-amino]benzyl N-phenylcarbamate] | 1 | 0.96 (≈ 2.21 µM) | 1.15 (≈ 2.65 µM) | 0.49 (≈ 1.13 µM) | 0.44 (≈ 1.01 µM) | 0.57 (≈ 1.31 µM) | 0.9 (≈ 2.07 µM) | –
Cc1cc(C)cc(NC(=O)OCc2cc(N)cc(Nc3c4ccccc4nc4ccccc34)c2)c1 [Example 6, [3-(acridin-9-yl)amino-5-amino]benzyl N-(3,5-dimethylphenyl) carbamate] | 3 | 0.72 (≈ 1.56 µM) | 0.36 (≈ 0.778 µM) | 0.40 (≈ 0.865 µM) | 0.37 (≈ 0.8 µM) | 0.33 (≈ 0.713 µM) | 0.8 (≈ 1.73 µM) | –
Nc1cc(COC(=O)Nc2cc(F)cc(F)c2)cc(Nc2c3ccccc3nc3ccccc23)c1 [Example 12, [3-(acridin-9-yl)amino-5-amino]benzyl N-(3,5-difluorophenyl) carbamate] | 0.5 | – | – | – | – | – | 1.2 (≈ 2.55 µM) | 150
